Experimental data taken from ChEMBL document CHEMBL4673334, “In Vivo Biological Evaluation of a Synthetic Royleanone Derivative as a Promising Fast-Acting Trypanocidal Agent by Inducing Mitochondrial-Dependent Necrosis” (J Nat Prod, 2020).
Calls of active or inactive are those of the source. The rule behind the calls is not given here.

Columns and labels:
[1] = tested on: Trypanosoma cruzi; test: Antitrypanosomal activity against Trypanosoma cruzi TINF/CH/1956/Tulahuen (DTU VI) blood stream trypomastigote form assessed as parasite growth inhibition incubated for 24 hrs by resazurin dye based assay; format: functional, organism-based
[2] = Selectivity index, ratio of IC50 for cytotoxicity against African green monkey Vero cells to IC50 for antitrypanosomal activity against Trypanosoma cruzi MHOM/Pe/2011/Arequipa(DTU V) amastigote form infected in Vero cells; format: toxicity, cell-based; conditions: read-out: Ratio IC50
[3] = target: Superoxide dismutase [Cu-Zn] (Homo sapiens, UniProt P00441); test: Inhibition of human erythrocytes CuZn-SOD by UV-VIS spectrophotometric method; set-up: species or system Erythrocyte
Superoxide dismutase [Cu-Zn], sequence (P00441 whole entry): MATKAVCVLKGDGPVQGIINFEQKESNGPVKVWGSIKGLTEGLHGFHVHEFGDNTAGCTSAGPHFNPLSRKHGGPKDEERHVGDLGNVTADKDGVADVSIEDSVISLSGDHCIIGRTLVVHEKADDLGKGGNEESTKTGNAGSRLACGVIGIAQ

[4] = tested on: Vero; test: Cytotoxicity against African green monkey Vero cells assessed as reduction in cell viability after 48 hrs by resazurin dye based assay; conditions: Chlorocebus sabaeus
[5] = Toxicity in BALB/c mouse infected with Trypanosomal Trypanosoma cruzi MHOM/Pe/2011/Arequipa(DTU V) assessed as effect on CK-MB level at 20 mg/kg, po administered for 5 days starting at 100 days post infection and measured after 2 days post treatment; format: organism-based; conditions: in vivo, 120 h, time 5 day
[6] = tested on: Trypanosoma cruzi; test: Antitrypanosomal activity against Trypanosoma cruzi MHOM/Pe/2011/Arequipa(DTU V) epimastigote form assessed as disruption of pyruvate level at IC25 concentration incubated for 72 hrs by NMR spectrometric analysis; format: functional, organism-based
[7] = Toxicity in BALB/c mouse infected with Trypanosomal Trypanosoma cruzi MHOM/Pe/2011/Arequipa(DTU V) assessed as effect on AST/GOT level at 20 mg/kg, po administered for 5 days starting at 9 days post infection and measured after 2 days post treatment; format: organism-based; conditions: in vivo, 120 h, time 5 day
[8] = Selectivity index, ratio of IC50 for cytotoxicity against African green monkey Vero cells to IC50 for antitrypanosomal activity against Trypanosoma cruzi TINF/CH/1956/Tulahuen (DTU VI) blood stream trypomastigote form; format: toxicity, cell-based; conditions: read-out: Ratio IC50
[9] = tested on: Trypanosoma cruzi; test: Antitrypanosomal activity against Trypanosoma cruzi MHOM/Pe/2011/Arequipa(DTU V) amastigote form infected in BALB/c mouse assessed as reactivation parasitaemia at 20 mg/kg, po administered for 5 days starting at 100 days post infection and measured up to 145 days post infection relative to control; format: functional
[10] = Toxicity in BALB/c mouse infected with Trypanosomal Trypanosoma cruzi MHOM/Pe/2011/Arequipa(DTU V) assessed as effect on CK-MB level at 20 mg/kg, po administered for 5 days starting at 9 days post infection and measured after 2 days post treatment; format: organism-based; conditions: in vivo, 120 h, time 5 day
[11] = Selectivity index, ratio of IC50 for cytotoxicity against African green monkey Vero cells to IC50 for antitrypanosomal activity against Trypanosoma cruzi TINF/CH/1956/Tulahuen (DTU VI) epimastigote form; format: toxicity, cell-based; conditions: read-out: Ratio IC50
[12] = Selectivity index, ratio of IC50 for cytotoxicity against African green monkey Vero cells to IC50 for antitrypanosomal activity against Trypanosoma cruzi IRHOD/CO/2008/SN3 (DTU I) epimastigote form; format: toxicity, cell-based; conditions: read-out: Ratio IC50
[13] = Selectivity index, ratio of IC50 for cytotoxicity against African green monkey Vero cells to IC50 for antitrypanosomal activity against Trypanosoma cruzi IRHOD/CO/2008/SN3 (DTU I) blood stream trypomastigote form; format: toxicity, cell-based; conditions: read-out: Ratio IC50
[14] = Selectivity index, ratio of IC50 for cytotoxicity against African green monkey Vero cells to IC50 for antitrypanosomal activity against Trypanosoma cruzi TINF/CH/1956/Tulahuen (DTU VI) amastigote form infected in Vero cells; format: toxicity, cell-based; conditions: read-out: Ratio IC50
[15] = Selectivity index, ratio of IC50 for cytotoxicity against African green monkey Vero cells to IC50 for antitrypanosomal activity against Trypanosoma cruzi MHOM/Pe/2011/Arequipa(DTU V) blood stream trypomastigote form; format: toxicity, cell-based; conditions: read-out: Ratio IC50
[16] = tested on: Trypanosoma cruzi; test: Antitrypanosomal activity against Trypanosoma cruzi IRHOD/CO/2008/SN3 (DTU I) blood stream trypomastigote form assessed as parasite growth inhibition incubated for 24 hrs by resazurin dye based assay; format: functional, organism-based
[17] = tested on: Trypanosoma cruzi; test: Antitrypanosomal activity against Trypanosoma cruzi MHOM/Pe/2011/Arequipa(DTU V) amastigote form infected in BALB/c mouse assessed as parasite free organ tissue ratio at 20 mg/kg, po administered for 5 days starting at 9 days post infection and measured up to 145 days post infection by PCR analysis relative to control; format: functional; conditions: time 5 day
[18] = Toxicity in BALB/c mouse infected with Trypanosomal Trypanosoma cruzi MHOM/Pe/2011/Arequipa(DTU V) assessed as effect on urea level at 20 mg/kg, po administered for 5 days starting at 9 days post infection and measured after 2 days post treatment; format: organism-based; conditions: in vivo, 120 h, time 5 day
[19] = tested on: Trypanosoma cruzi; test: Antitrypanosomal activity against Trypanosoma cruzi MHOM/Pe/2011/Arequipa(DTU V) amastigote form infected in BALB/c mouse assessed as parasite free organ tissue ratio at 20 mg/kg, po administered for 5 days starting at 100 days post infection and measured up to 145 days post infection by PCR analysis relative to control; format: functional; conditions: time 5 day
[20] = tested on: Trypanosoma cruzi; test: Antitrypanosomal activity against Trypanosoma cruzi IRHOD/CO/2008/SN3 (DTU I) amastigote form infected in Vero cells assessed as parasite growth inhibition incubated for 72 hrs by Giemsa-staining based assay; format: functional, organism-based
[21] = Toxicity in BALB/c mouse infected with Trypanosomal Trypanosoma cruzi MHOM/Pe/2011/Arequipa(DTU V) assessed as effect on urea level at 20 mg/kg, po administered for 5 days starting at 100 days post infection and measured after 2 days post treatment; format: organism-based; conditions: in vivo, 120 h, time 5 day
[22] = Selectivity index, ratio of IC50 for cytotoxicity against African green monkey Vero cells to IC50 for antitrypanosomal activity against Trypanosoma cruzi MHOM/Pe/2011/Arequipa(DTU V) epimastigote form; format: toxicity, cell-based; conditions: read-out: Ratio IC50
[23] = Toxicity in BALB/c mouse infected with Trypanosomal Trypanosoma cruzi MHOM/Pe/2011/Arequipa(DTU V) assessed as effect on ALP level at 20 mg/kg, po administered for 5 days starting at 9 days post infection and measured after 2 days post treatment; format: organism-based; conditions: in vivo, 120 h, time 5 day
[24] = Inhibition of Trypanosoma cruzi MHOM/Pe/2011/Arequipa(DTU V) epimastigote form Fe-SOD by UV-VIS spectrophotometric method
[25] = tested on: Trypanosoma cruzi; test: Antitrypanosomal activity against Trypanosoma cruzi IRHOD/CO/2008/SN3 (DTU I) epimastigote form assessed as parasite growth inhibition incubated for 48 hrs by resazurin dye based assay; format: functional, organism-based
[26] = tested on: Trypanosoma cruzi; test: Inhibition of mitochondrial membrane potential in Trypanosoma cruzi MHOM/Pe/2011/Arequipa(DTU V) epimastigote form at IC25 concentration after 72 hrs by Rho (FITC-A) staining based flow cytometric analysis; format: functional
[27] = tested on: Trypanosoma cruzi; test: Antitrypanosomal activity against Trypanosoma cruzi MHOM/Pe/2011/Arequipa(DTU V) blood stream trypomastigote form assessed as parasite growth inhibition incubated for 24 hrs by resazurin dye based assay; format: functional, organism-based
[28] = Toxicity in BALB/c mouse infected with Trypanosomal Trypanosoma cruzi MHOM/Pe/2011/Arequipa(DTU V) assessed as reduction in weight at 20 mg/kg, po administered for 5 days starting at 9 days post infection and measured up to 145 days post infection; format: organism-based; conditions: in vivo, 120 h, time 5 day
[29] = tested on: Trypanosoma cruzi; test: Antitrypanosomal activity against Trypanosoma cruzi MHOM/Pe/2011/Arequipa(DTU V) epimastigote form assessed as parasite growth inhibition incubated for 48 hrs by resazurin dye based assay; format: functional, organism-based

SMILES | IC50 [1] | selectivity ratio [2] | IC50 [3] | IC50 [4] | Activity [5] | Activity [6] | Activity [7] | selectivity ratio [8] | Activity [10] | selectivity ratio [11] | selectivity ratio [12] | selectivity ratio [13] | selectivity ratio [14] | selectivity ratio [15] | IC50 [16] | Activity [17] | Activity [18] | Activity [19] | IC50 [20] | Activity [21] | other results
COC(=O)[C@]1(C)CCC[C@]2(C)C3=C(C=C[C@@H]12)C(=O)C(C(C)C)=CC3=O | 1.6 µM | > 40 | > 100 µM | 72.2 µM | Non-Toxic | inactive | Non-Toxic | > 40 | Non-Toxic | > 15 | > 15 | > 40 | > 40 | > 40 | 1.8 µM | 57.1% | Non-Toxic | 57.1% | 5.4 µM | Non-Toxic | Activity ([9]; time 5 day): 52%; selectivity ratio [22]: > 15; Activity [23]: Non-Toxic; IC50 [24]: 6.5 µM; IC50 [25]: 1.6 µM; inhibition [26]: 50%; IC50 [27]: 0.7 µM; Activity [28]: Non-Toxic; IC50 [29]: 1.4 µM
CC(C)c1cc(C=O)c([C@@]2(C)CCCC(C)(C)C2=O)cc1O | 9.3 µM | > 40 | > 100 µM | 624 µM | Non-Toxic | inactive | Non-Toxic | > 40 | Non-Toxic | > 15 | > 15 | > 40 | > 40 | > 40 | 8.7 µM | 28.5% | Non-Toxic | 42.9% | 7.2 µM | Non-Toxic | Activity ([9]; time 5.0 day): Active; selectivity ratio [22]: > 15; Activity [23]: Non-Toxic; IC50 [24]: > 100 µM; IC50 [25]: 12.5 µM; inhibition [26]: 41.8%; IC50 [27]: 9.9 µM; Activity [28]: Non-Toxic; IC50 [29]: 18.5 µM
